Data reported in patent US10968214B2, “KRas G12C inhibitors” (Eli Lilly and Company, priority 2018, dated 2021).
Like-named read-outs stand apart in the source and are kept apart here.

Tests used:
[1] = system: pMEK in H358 xenograft tumors; assay: In vivo target inhibition/PD, H358 xenograft, pMEK; parameters: species or system mouse; conditions: for inhibition at 30 mg/kg: 30 mg/kg single dose
Protocol: To evaluate in vivo target inhibition and anti-tumor efficacy of a compound, Human lung cancer cells, H358 or H2122 are implanted into nude mice xenograft tumor models. Either H358 or H2122 cells (10×10^6 in a 1:1 Matrigel® mix, 0.2 mL total volume) are implanted by subcutaneous injection in hind leg of nude female mice (Harlan Laboratories). A total of 5 mice each group are used for efficacy study, and a total of 3-4 mice each group are used for target engagement and PD study. Treatment is initiated with oral administration (gavage) of a test compound or vehicle (20% Captisol®, 25 mM phosphate, pH 2.0 in 0.2 mL volume when the tumor size reaches approximately […]. Tumor growth and body weight are monitored over time to evaluate efficacy and signs of toxicity. Bidimensional measurements of tumors are performed twice a week and tumor volumes are calculated based on mid-axis length and mid-axis width. Tumor volume data are transformed to a log scale to equalize variance across time and treatment groups. The log volume data are analyzed with a two-way repeated measures analysis of variance by time and treatment using the mixed procedures in SAS software (version 8.2). The correlation model for the repeated measures is spatial power. Treated groups are compared to the control group at each time point. The mixed procedure is also used separately for each treatment group to calculate adjusted means and standard errors at each time point. Both analyses account for the autocorrelation within each animal. The adjusted means and standard errors are plotted for each treatment group versus time.
For in vivo target inhibition and PD analysis, tumors are ground by mortar and pestle on dry ice and tumor fragments are added to 800 μL of lysis buffer containing 1% Triton X100, 25 mM Tris pH 7.5, 150 mM NaCl, 1 mM EDTA, and 1 mM EGTA with Halt protease and phosphatase inhibitor cocktail (Thermo Scientific, cat. no. 1861281) in lysing matrix D tubes (MP Biomedical®, cat. no. 6913-500) with one additional large bead (MP Biomedical® ¼″ ceramic sphere bead cat. no. 6540-412) per tube. Tumor fragments are homogenized in a Thermo Bio101® fast prep (FP120) at setting 4 for […] while cold for a total of 2 times. Lysates are spun at 14,000 rpm for 10 min at 4° C. to clarify. Protein estimation is done on the lysate supernatant using a BioRad Dc® protein assay and lysates are diluted in complete lysis/binding buffer from the Ras GTPase Chemi ELISA Kit® (Active Motif, cat. no. 52097). The active KRas ELISA was performed as follows: Glutathione-coated ELISA wells were incubated with diluted RAF1-GST in complete lysis/binding buffer for 1 hr at 4° C. with gentle agitation. Wells are washed 3 times with wash buffer and 100 μg of lysates are added to each well and incubated at RT for 1 hr with mild agitation. The wells are washed an additional 3 times, then primary antibody, diluted in antibody binding buffer, is added to each well. The plates are incubated for 1 hr. The wells are washed 3 more times before adding HRP-conjugated secondary antibody, diluted in antibody binding buffer, to each well. The plates are incubated at RT for 1 hr. ELISA wells are washed 4 times, chemiluminescent reagents is added and then luminescence is read. For pERK Meso Scale Discovery ELISA, 25 μg of protein containing 0.1% SDS is used; for pMEK Meso Scale Discovery ELISA, 50 μg of protein without SDS is used. Meso Scale Discovery Whole Cell Lysate Kits for pERK and pMEK are provided by Meso Scale Discovery.
The tumor samples are collected 4 hr post a single dose. The tumor lysates are prepared and the inhibition of pERK, pMEK, and active KRas is measured as described above.
After a single dose, the tumor samples are harvested at 2, 4, 8, 12 and 24 hr post doing. The tumor lysates are prepared and the inhibition of pERK, pMEK, and active KRas is measured as described above.

H358 = assay: Combination 4 day growth assay (Cell TiterGlo), H358; format: cell-based; conditions: Homo sapiens, NCI-H358, 96 h, single treatment, read-out: Absolute IC50
Protocol: Cell lines for this study are obtained from ATCC and grown under ATCC recommended conditions, except for LXFA-983L, which is obtained from Oncotest/Charles Rivers Laboratories, Wilmington, Mass. and D122-96, which is obtained from L. Eisenbach (Weizman Institute of Science, Rehovot, Israel)—both grown under recommended conditions. […] The proliferation assay is performed as a 4 day growth assay using Cell TiterGlo® as the readout. Briefly, cells are plated in 96-well cell culture plates and allowed to adhere overnight at 37° C. The following day, cells are treated with compounds, either single treatments or combination treatments. First, the testing compounds are serially diluted in DMSO, followed by dilution into media as a 5× concentration with 1% DMSO, and finally added to cells in media to dilute to 1×. The cells are incubated at 37° C. for 4 more days. At the end of the incubation period, Cell TiterGlo® reagent is mixed and added to the wells. After 10 minutes, the luminescence is read by a Perkin Elmer Envision instrument. Absolute IC50 values generated by a 4-parameter logistics model for the single and combination treatments are generated, followed by combination indexes for each combination treatment and cell line. The combination IC50 values are adjusted based on the total concentration of each compound when added together. […] The combination index (CI) measures the degree to which the potency of a combination therapy differs from the expected-if-additive potency and is based on the Loewe definition of additivity.
[formula] Where • CAy and CBy are the concentrations of therapies A and B that produce an effect, y, when given in combination • ICAy and ICBy are the concentrations of A and B that produce an effect, y, when given individually The biological interpretation of the combination index is as follows: synergistic if the combination index <0.5, additive if the combination index is between 0.5 and 2, and antagonistic if the combination index is >2.

C=CC(=O)N1CCN(c2ncnc3c(F)c(-c4ccc(F)c5sc(N)nc45)c(Cl)cc23)CC1 [Example 1, 1-{4-[7-(2-Amino-7-fluoro-1,3-benzothiazol-4-yl)-6-chloro-8-fluoroquinazolin-4-yl]piperazin-1-yl}prop-2-en-1-one]
% Inhibition pMEK ([1]; H358 xenograft, time course, 10 mg/kg single dose, 24 hr, 10 mg/kg): 30.4% | dose to achieve 50% target inhibition (TED50), pMEK ([1]; H358 xenograft, single dose, 4 hr): 11.19 mg/kg | inhibition at 10 mg/kg ([1]; Mus musculus, NCI-H358, 2 h, H358 xenograft, time course, 10 mg/kg single dose, 2 hr, read-out: % Inhibition pMEK): 49.2% | inhibition at 30 mg/kg ([1]; Mus musculus, NCI-H358, 2 h, H358 xenograft, time course, 2 hr, read-out: % Inhibition pMEK): 81.4% | inhibition at 10 mg/kg ([1]; Mus musculus, NCI-H358, 4 h, H358 xenograft, time course, 10 mg/kg single dose, 4 hr, read-out: % Inhibition pMEK): 59.5% | inhibition at 30 mg/kg ([1]; Mus musculus, NCI-H358, 4 h, H358 xenograft, time course, 4 hr, read-out: % Inhibition pMEK): 89.3% | inhibition at 1 mg/kg ([1]; Mus musculus, NCI-H358, 4 h, H358 xenograft, 1 mg/kg single dose, 4 hr post dose): -6.2% | inhibition at 3 mg/kg ([1]; Mus musculus, NCI-H358, 4 h, H358 xenograft, 3 mg/kg single dose, 4 hr post dose): 11.1% | inhibition at 10 mg/kg ([1]; Mus musculus, NCI-H358, 4 h, H358 xenograft, 10 mg/kg single dose, 4 hr post dose, read-out: % Inhibition pMEK): 43.1% | inhibition at 30 mg/kg ([1]; Mus musculus, NCI-H358, 4 h, H358 xenograft, 4 hr post dose, read-out: % Inhibition pMEK): 82.1% | inhibition at 100 mg/kg ([1]; Mus musculus, NCI-H358, 4 h, H358 xenograft, 100 mg/kg single dose, 4 hr post dose): 85.8% | inhibition at 10 mg/kg ([1]; Mus musculus, NCI-H358, 8 h, H358 xenograft, time course, 10 mg/kg single dose, 8 hr, read-out: % Inhibition pMEK): 62.4% | inhibition at 30 mg/kg ([1]; Mus musculus, NCI-H358, 8 h, H358 xenograft, time course, 8 hr, read-out: % Inhibition pMEK): 81.8% | inhibition at 10 mg/kg ([1]; Mus musculus, NCI-H358, 12 h, H358 xenograft, time course, 10 mg/kg single dose, 12 hr, read-out: % Inhibition pMEK): 77.9% | inhibition at 30 mg/kg ([1]; Mus musculus, NCI-H358, 12 h, H358 xenograft, time course, 12 hr, read-out: % Inhibition pMEK): 65.8% | inhibition at 10 mg/kg ([1]; Mus musculus, NCI-H358, 24 h, H358 xenograft, time course, 10 mg/kg single dose, 24 hr, read-out: % Inhibition pMEK): 30% | inhibition at 30 mg/kg ([1]; Mus musculus, NCI-H358, 24 h, H358 xenograft, time course, 24 hr, read-out: % Inhibition pMEK): 35% | inhibition at 10 mg/kg ([1]; Mus musculus, NCI-H358, H358 xenograft, 10 mg/kg single dose, from 2-12 hr, read-out: pMEK inhibition): 49 to 78% | inhibition at 30 mg/kg ([1]; Mus musculus, NCI-H358, H358 xenograft, from 2-24 hr, read-out: pMEK inhibition): 35 to 89% | EC50 ([1]; Mus musculus, NCI-H358, H358 xenograft, plasma exposure by mass spectrum, read-out: plasma concentration to achieve 50% target inhibition (TEC50), pMEK): 515 nM | IC50 (H358): 41.9 nM
